In patent US12072333B2, “Method and apparatus for selective removal of cells from a cell suspension by mechanical lysis” (UNIVERSITY OF IOWA RESEARCH FOUNDATION, priority 2016, dated 2024):

System: prostate cancer cells
Test: Cell killing by ionomycin measured by uptake of trypan blue dye
Assay type: cell-based
Details: prostate cancer cells treated with ionomycin; after 30 minute; FIG. 1B

C[C@H](CCC(=O)O)C[C@H](C)C[C@H](C)C(=O)/C=C(\O)[C@H](C)C[C@H](C)C/C=C/[C@@H](C)[C@@H](O)[C@@H](C)[C@@H](O)C[C@@H]1CC[C@@](C)([C@H]2CC[C@@](C)([C@@H](C)O)O2)O1 [ionomycin]
cell death as measured by uptake of trypan blue dye: rapidly kills these cells
